This is an account of results in article PMC8564633, “SMAC/Diablo controls proliferation of cancer cells by regulating phosphatidylethanolamine synthesis” (Molecular Oncology, 2021).

Read-outs that look alike come from different tables or passages of the source. Non-standard residues stand in square brackets, D forms with d. Residues, ends and D or L forms follow the SMILES beside them. Dmt = Cc1cc(O)cc(C)c1C[C@H](N)C(=O)O; Orn = NCCC[C@H](N)C(=O)O

For the experiment, the system named is A549 cells. It counts as cell-based, human. The conditions noted are these: 24 h. As to the method:
Cells were seeded in 96‐well cell culture plates (8000/well) and allowed to grow for 48 h. After washing with PBS, cells were fixed with 50% trichloroacetic acid and stained with SRB for 20 min. Excess SRB was removed, and cells were washed with 1% acetic acid. SRB extraction was done using 100 mM Tris‐base, and absorbance at 510 nm was determined using an Infinite M1000 plate reader (Tecan, Männedorf, Switzerland).
Fig. 7 PSD‐interacting peptides bind to PSD, inhibiting its activity, and when cell‐penetrating and mitochondria‐ or nucleus‐targeted, inhibit cell proliferation. […] (B) Inhibition of PSD activity by the 2F3 (●) or 1C11 (○) peptide. PSD activity was measured using the DSB‐3 method. (C‐E) Cell proliferation inhibition following incubation of A549 cells with the indicated mitochondria‐ or nucleus‐targeted peptides for 24 h in a serum‐free medium, and cell proliferation was assayed using the SRB method. Results are the means ± SEM (n = 3). (F) A549 cells were incubated for 90 min with 5 µM of the mitochondria‐ or nucleus‐targeted FITC‐labelled peptides, immunostained with anti‐SMAC antibodies and with DAPI and visualized by confocal microscope for subcellular localization. (a) and (b) present higher magnification, white arrows point to possible nuclear localization of the peptide, and blue arrows to its colocalization with mitochondria marker (n = 3). Scale bars represent 20, 10 µm as indicated.
Table S4. Effects of peptide identified as interacting with PSD or their interaction with SMAC/Diablo is prevented in the presence of PSD on A549 lung cancer cell growth A549 cells were seeded in 96-well plate (7000 cells/well). After 24 h cells were incubated without or with the indicated peptide concentration for 24 h in a serum-free medium. Then, cells were washed with PBS, and analyzed for cell growth using the SRB method. Results are the mean ± SD (n=3). Peptide sequence, its identification manner, based on interacting with PSD or their interaction with SMAC/Diablo is prevented in the presence of PSD are shown. In addition, the peptides are presented with the cell penetrating peptide targeting to the mitochondria or the nucleus. The results are presented as the concentration required for 50% inhibition (IC50).
No Peptide spot and Protein/Function Peptide and Cellular IC50 […]
ALSTSSPIPSVPQSQ transcriptional coactivator 2 Mitochondria (A) […]
AQPQTGSGAS truncated poly Q, transcriptional H-(D-Arg)–Dmt–Orn–Phe- 2F3 >100 Interacting with PSD coactivator for NOTCH proteins, Mitochondria promotes proliferative signaling R-{D-Arg}-RK- 2F3 28.9±5.2 during neurogenesis (Nucleus). Nucleus […]
PNQSSRAFQGTDHS transcriptional coactivator 2 Mitochondria
SDLAFDFLSQQ truncated poly Q, A transcriptional D-Arg–Dmt–Orn–Phe-2I8 66.8±4.7 Identified by PSD coactivator for NOTCH proteins, Mitochondria preventing SMAC promotes proliferative signaling R-{D-Arg}-RK-2I8 >100 interaction with it during neurogenesis (Nucleus). Nucleus […]
ALLTSGTSDPRARV protease promotes cell death either Mitochondria […]
TYGTPSLWARL by direct binding to IAPs proteins D-Arg–Dmt–Orn–Phe -1C11 89.3±5.49 Interacting with PSD leading to increased caspase Mitochondria activity or caspase-independent and serine protease activity-dependent R-{D-Arg}-RK- 1C11 66.5±3.9 mechanism. (Mitochondrion Nucleus intermembrane space). 1C11- R-{D-Arg}-RK 30.0±3.8 […]
ELYRMSTYSTFPAG Acts as an E3 ubiquitin-protein Mitochondria
VPVSERSLARA ligase, regulator of NF-kappa-B 1E14- D-Arg–Dmt–Orn–Phe >100 Identified by PSD signaling, apoptosis, cell Mitochondria preventing SMAC proliferation, cell invasion and R-{D-Arg}-RK-1E14 >100 interaction with it metastasis, modulates inflammatory Nucleus signaling, (Cytosol, nucleus and […]

The mark [1] stands for this setting: A549 cells, serum‐free medium, SRB, read-out: IC50, cell proliferation inhibition.

Compound `CC(C)C[C@H](NC(=O)[C@H](C)N)C(=O)N[C@@H](CC(C)C)C(=O)N[C@H](C(=O)N[C@@H](CO)C(=O)NCC(=O)N[C@H](C(=O)N[C@@H](CO)C(=O)N[C@@H](CC(=O)O)C(=O)N1CCC[C@H]1C(=O)N[C@@H](CCCNC(=N)N)C(=O)N[C@@H](C)C(=O)N[C@@H](CCCNC(=N)N)C(=O)N[C@H](C(=O)N[C@H](C(=O)N[C@@H](Cc1ccc(O)cc1)C(=O)NCC(=O)N[C@H](C(=O)N1CCC[C@H]1C(=O)N[C@@H](CO)C(=O)N[C@@H](CC(C)C)C(=O)N[C@@H](Cc1c[nH]c2ccccc12)C(=O)N[C@@H](C)C(=O)N[C@@H](CCCNC(=N)N)C(=O)N[C@@H](CC(C)C)C(=O)N[C@@H](CCCNC(=N)N)C(=O)N[C@H](CCCNC(=N)N)C(=O)N[C@@H](CCCNC(=N)N)C(=O)N[C@@H](CCCCN)C(=O)O)[C@@H](C)O)[C@@H](C)O)C(C)C)[C@@H](C)O)[C@@H](C)O` [1C11-R-{D-Arg}-RK] (H-ALLTSGTSDPRARVTYGTPSLWARLR[dR]RK-OH; N-terminus and C-terminus assumed) gave an IC50 of 30 µM. On the same count and under the same terms, as for `CC[C@H](C)[C@H](NC(=O)[C@@H]1CCCN1C(=O)[C@H](CO)NC(=O)[C@H](CO)NC(=O)[C@@H](NC(=O)[C@H](CO)NC(=O)[C@H](CC(C)C)NC(=O)[C@H](C)NC(=O)[C@H](Cc1ccccc1)NC(=O)[C@H](CCCN)NC(=O)[C@H](Cc1c(C)cc(O)cc1C)NC(=O)[C@H](N)CCCNC(=N)N)[C@@H](C)O)C(=O)N1CCC[C@H]1C(=O)N[C@@H](CO)C(=O)N[C@H](C(=O)N1CCC[C@H]1C(=O)N[C@@H](CCC(N)=O)C(=O)N[C@@H](CO)C(=O)N[C@@H](CCC(N)=O)C(=O)N[C@@H](C)C(=O)N[C@@H](CCC(N)=O)C(=O)N1CCC[C@H]1C(=O)N[C@@H](CCC(N)=O)C(=O)N[C@H](C(=O)NCC(=O)N[C@@H](CO)C(=O)NCC(=O)N[C@@H](C)C(=O)N[C@@H](CO)C(=O)O)[C@@H](C)O)C(C)C` [H-(D-Arg)–Dmt–Orn–Phe- 2F3] (H-[dR][Dmt][Orn]FALSTSSPIPSVPQSQAQPQTGSGAS-OH; C-terminus assumed), the figure is above 100 µM.

With 2F3 -D-Arg–Dmt–Orn–Phe, the IC50 under setting [1] was 19.6 µM. For the compound `Cc1cc(O)cc(C)c1C[C@H](NC(=O)[C@H](N)CCCNC(=N)N)C(=O)N[C@@H](CCCN)C(=O)N[C@@H](Cc1ccccc1)C(=O)N[C@@H](C)C(=O)N[C@@H](CC(C)C)C(=O)N[C@@H](CC(C)C)C(=O)N[C@H](C(=O)N[C@@H](CO)C(=O)NCC(=O)N[C@H](C(=O)N[C@@H](CO)C(=O)N[C@@H](CC(=O)O)C(=O)N1CCC[C@H]1C(=O)N[C@@H](CCCNC(=N)N)C(=O)N[C@@H](C)C(=O)N[C@@H](CCCNC(=N)N)C(=O)N[C@H](C(=O)N[C@H](C(=O)N[C@@H](Cc1ccc(O)cc1)C(=O)NCC(=O)N[C@H](C(=O)N1CCC[C@H]1C(=O)N[C@@H](CO)C(=O)N[C@@H](CC(C)C)C(=O)N[C@@H](Cc1c[nH]c2ccccc12)C(=O)N[C@@H](C)C(=O)N[C@@H](CCCNC(=N)N)C(=O)N[C@@H](CC(C)C)C(=O)O)[C@@H](C)O)[C@@H](C)O)C(C)C)[C@@H](C)O)[C@@H](C)O` [D-Arg–Dmt–Orn–Phe -1C11] (H-[dR][Dmt][Orn]FALLTSGTSDPRARVTYGTPSLWARL-OH; N-terminus and C-terminus assumed), the IC50 is 89.3 ± 5.49 µM. In turn, `CC[C@H](C)[C@H](NC(=O)[C@@H]1CCCN1C(=O)[C@H](CO)NC(=O)[C@H](CO)NC(=O)[C@@H](NC(=O)[C@H](CO)NC(=O)[C@H](CC(C)C)NC(=O)[C@H](C)NC(=O)[C@H](CCCCN)NC(=O)[C@H](CCCNC(=N)N)NC(=O)[C@@H](CCCNC(=N)N)NC(=O)[C@@H](N)CCCNC(=N)N)[C@@H](C)O)C(=O)N1CCC[C@H]1C(=O)N[C@@H](CO)C(=O)N[C@H](C(=O)N1CCC[C@H]1C(=O)N[C@@H](CCC(N)=O)C(=O)N[C@@H](CO)C(=O)N[C@@H](CCC(N)=O)C(=O)N[C@@H](C)C(=O)N[C@@H](CCC(N)=O)C(=O)N1CCC[C@H]1C(=O)N[C@@H](CCC(N)=O)C(=O)N[C@H](C(=O)NCC(=O)N[C@@H](CO)C(=O)NCC(=O)N[C@@H](C)C(=O)N[C@@H](CO)C(=O)O)[C@@H](C)O)C(C)C` [R-{D-Arg}-RK- 2F3] (H-R[dR]RKALSTSSPIPSVPQSQAQPQTGSGAS-OH; N-terminus and C-terminus assumed) displayed an IC50 of 28.9 ± 5.2 µM. Under setting [1], the IC50 is 19.6 µM. Regarding `CC(C)C[C@H](NC(=O)[C@H](CC(=O)O)NC(=O)[C@H](CO)NC(=O)[C@H](CO)NC(=O)[C@H](Cc1c[nH]cn1)NC(=O)[C@H](CC(=O)O)NC(=O)[C@@H](NC(=O)CNC(=O)[C@H](CCC(N)=O)NC(=O)[C@H](Cc1ccccc1)NC(=O)[C@H](C)NC(=O)[C@H](CCCNC(=N)N)NC(=O)[C@H](CO)NC(=O)[C@H](CO)NC(=O)[C@H](CCC(N)=O)NC(=O)[C@H](CC(N)=O)NC(=O)[C@@H]1CCCN1C(=O)[C@H](CCCCN)NC(=O)[C@H](CCCNC(=N)N)NC(=O)[C@@H](CCCNC(=N)N)NC(=O)[C@@H](N)CCCNC(=N)N)[C@@H](C)O)C(=O)N[C@@H](C)C(=O)N[C@@H](Cc1ccccc1)C(=O)N[C@@H](CC(=O)O)C(=O)N[C@@H](Cc1ccccc1)C(=O)N[C@@H](CC(C)C)C(=O)N[C@@H](CO)C(=O)N[C@@H](CCC(N)=O)C(=O)N[C@@H](CCC(N)=O)C(=O)O` [R-{D-Arg}-RK-2I8] (H-R[dR]RKPNQSSRAFQGTDHSSDLAFDFLSQQ-OH; N-terminus and C-terminus assumed), the IC50 is above 100 µM. The same measure, in the same setting: as for `CSCC[C@H](NC(=O)[C@H](CCCNC(=N)N)NC(=O)[C@H](Cc1ccc(O)cc1)NC(=O)[C@H](CC(C)C)NC(=O)[C@@H](N)CCC(=O)O)C(=O)N[C@@H](CO)C(=O)N[C@H](C(=O)N[C@@H](Cc1ccc(O)cc1)C(=O)N[C@@H](CO)C(=O)N[C@H](C(=O)N[C@@H](Cc1ccccc1)C(=O)N1CCC[C@H]1C(=O)N[C@@H](C)C(=O)NCC(=O)N[C@H](C(=O)N1CCC[C@H]1C(=O)N[C@H](C(=O)N[C@@H](CO)C(=O)N[C@@H](CCC(=O)O)C(=O)N[C@@H](CCCNC(=N)N)C(=O)N[C@@H](CO)C(=O)N[C@@H](CC(C)C)C(=O)N[C@@H](C)C(=O)N[C@@H](CCCNC(=N)N)C(=O)N[C@@H](C)C(=O)N[C@H](CCCNC(=N)N)C(=O)N[C@@H](Cc1c(C)cc(O)cc1C)C(=O)N[C@@H](CCCN)C(=O)N[C@@H](Cc1ccccc1)C(N)=O)C(C)C)C(C)C)[C@@H](C)O)[C@@H](C)O` [1E14-D-Arg–Dmt–Orn–Phe] (H-ELYRMSTYSTFPAGVPVSERSLARA[dR][Dmt][Orn]F-NH2; N-terminus and C-terminus assumed), the figure is above 100 µM.
